Values after ≈ are worked out from the molar mass of the structure shown. Like-named read-outs stand apart in the source and are kept apart here.
How the values were obtained:
[1] = tested on: Mycobacterium tuberculosis H37Rv; assay: Microplate Alamar Blue assay (MABA) MIC, M. tuberculosis; assay type: cell-based; conditions: read-out: MIC Mycobacterium tuberculosis H37Rv
Excerpt: (§1) Minimal inhibitory concentrations (MICs) in Mycobacterium tuberculosis H37Rv and Mycobacterium avium ATCC 25291 were quantified using microplate Alamar Blue assays as described (MABA; [Collins, L. & Franzblau, S. (1997) Microplate Alamar Blue assay versus BACTEC 460 system for high-throughput screening of compounds against Mycobacterium tuberculosis and Mycobacterium avium. Antimicrob. Agents Chemother. 41, 1004-1009]).

[2] = tested on: Mycobacterium avium ATCC 25291; assay: Microplate Alamar Blue assay (MABA) MIC, M. avium; assay type: cell-based; conditions: ATCC25291, M. avium ATCC 25291
Excerpt: as §1

[3] = tested on: Mycobacterium smegmatis ATCC 19420; assay: Broth microdilution MIC, M. smegmatis; assay type: cell-based; conditions: Mycolicibacterium smegmatis
Excerpt: (§2) MICs in Mycobacterium smegmatis ATCC 19420 and Mycobacterium smegmatis ATCC 19420 derivatives were quantified using broth microdilution assays as described [Clinical and Laboratory Standards Institute (CLSI/NCCLS) (2009) Methods for Dilution Antimicrobial Susceptibility Tests for Bacteria That Grow Aerobically; Approved Standard, Eighth Edition. CLIS Document M07-A8 (CLIS, Wayne Pa.)].

[4] = tested on: AAP1-resistant mutants, derivatives of M. smegmatis ATCC19420; assay: MICs in AAP1-resistant mutants (resistance and cross-resistance levels); assay type: cell-based, Mycobacterium smegmatis; conditions: MICs in AAP1-resistant mutants
[5] = tested on: rifampin-resistant mutants, derivatives of M. smegmatis ATCC19420; assay: MICs in rifampin-resistant mutants (cross-resistance levels); assay type: cell-based, Mycobacterium smegmatis
Excerpt: as §2

[6] = tested on: Vero E6 ATCC CRL1586 cells; assay: Mammalian-cell cytotoxicity, minimal cytotoxic concentration (CellTiter96); assay type: cell-based
Procedure: Minimal cytotoxic concentrations (MCCs) against mammalian cells in culture were determined using Vero E6 ATCC CRL1586 cells and the CellTiter96 assay kit (Promega, Inc.). […]

[7] = biological target: Mycobacterium tuberculosis RNA polymerase (Mycobacterium tuberculosis, UniProt P9WGY7+P9WGY9); assay: Run-off transcription assay with Mycobacterium tuberculosis RNA polymerase (radiochemical); assay type: biochemical; conditions: IC50 Mycobacterium tuberculosis RNA polymerase
Chain of Mycobacterium tuberculosis RNA polymerase (P9WGZ1 whole entry, the tested form may be a part): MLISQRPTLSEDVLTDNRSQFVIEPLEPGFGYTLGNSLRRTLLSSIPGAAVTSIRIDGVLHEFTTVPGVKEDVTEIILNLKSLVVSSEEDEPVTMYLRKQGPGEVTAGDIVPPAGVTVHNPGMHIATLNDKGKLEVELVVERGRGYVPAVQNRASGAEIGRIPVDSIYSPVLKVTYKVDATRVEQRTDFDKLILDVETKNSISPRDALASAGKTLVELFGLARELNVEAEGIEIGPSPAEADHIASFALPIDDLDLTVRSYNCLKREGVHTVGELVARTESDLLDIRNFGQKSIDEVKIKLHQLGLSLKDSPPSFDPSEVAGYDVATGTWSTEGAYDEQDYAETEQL
Chain of Mycobacterium tuberculosis RNA polymerase (P9WGY5 whole entry, further chain, the tested form may be a part): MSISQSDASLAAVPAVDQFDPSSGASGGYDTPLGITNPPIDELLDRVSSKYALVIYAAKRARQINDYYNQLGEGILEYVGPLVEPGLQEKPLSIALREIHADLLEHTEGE
Chain of Mycobacterium tuberculosis RNA polymerase (P9WGY9 whole entry, the tested form may be a part): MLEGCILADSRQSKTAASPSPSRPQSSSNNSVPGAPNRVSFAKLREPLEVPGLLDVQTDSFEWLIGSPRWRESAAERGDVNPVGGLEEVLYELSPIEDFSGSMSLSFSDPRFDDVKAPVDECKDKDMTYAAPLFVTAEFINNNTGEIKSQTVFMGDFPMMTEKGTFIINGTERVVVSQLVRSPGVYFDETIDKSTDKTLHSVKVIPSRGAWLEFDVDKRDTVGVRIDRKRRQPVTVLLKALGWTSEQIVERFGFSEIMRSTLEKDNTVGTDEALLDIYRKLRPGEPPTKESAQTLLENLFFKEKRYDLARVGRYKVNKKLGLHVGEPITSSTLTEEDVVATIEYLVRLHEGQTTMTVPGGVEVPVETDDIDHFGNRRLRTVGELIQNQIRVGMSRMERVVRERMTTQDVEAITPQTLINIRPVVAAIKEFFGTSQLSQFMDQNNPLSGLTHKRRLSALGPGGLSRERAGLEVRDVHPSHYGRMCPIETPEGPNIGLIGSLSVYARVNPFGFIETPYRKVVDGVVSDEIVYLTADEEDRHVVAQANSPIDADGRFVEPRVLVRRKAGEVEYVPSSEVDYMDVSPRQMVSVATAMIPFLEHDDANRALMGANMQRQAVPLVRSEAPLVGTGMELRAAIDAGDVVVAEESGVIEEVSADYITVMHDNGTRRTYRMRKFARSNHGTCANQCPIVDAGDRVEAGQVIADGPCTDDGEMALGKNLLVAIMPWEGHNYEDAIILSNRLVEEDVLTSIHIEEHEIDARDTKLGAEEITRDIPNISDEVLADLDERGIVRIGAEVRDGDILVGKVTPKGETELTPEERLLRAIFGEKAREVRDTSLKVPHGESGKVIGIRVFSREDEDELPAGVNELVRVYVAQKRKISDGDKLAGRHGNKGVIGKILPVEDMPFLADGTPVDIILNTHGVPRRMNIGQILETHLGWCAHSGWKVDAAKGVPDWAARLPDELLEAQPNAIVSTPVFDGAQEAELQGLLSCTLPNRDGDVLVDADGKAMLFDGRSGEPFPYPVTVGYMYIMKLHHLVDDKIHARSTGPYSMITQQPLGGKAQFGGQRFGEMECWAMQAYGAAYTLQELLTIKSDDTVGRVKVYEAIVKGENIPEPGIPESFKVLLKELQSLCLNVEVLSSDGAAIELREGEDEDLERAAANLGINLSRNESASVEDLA
Chain of Mycobacterium tuberculosis RNA polymerase (P9WGI1 whole entry, further chain, the tested form may be a part): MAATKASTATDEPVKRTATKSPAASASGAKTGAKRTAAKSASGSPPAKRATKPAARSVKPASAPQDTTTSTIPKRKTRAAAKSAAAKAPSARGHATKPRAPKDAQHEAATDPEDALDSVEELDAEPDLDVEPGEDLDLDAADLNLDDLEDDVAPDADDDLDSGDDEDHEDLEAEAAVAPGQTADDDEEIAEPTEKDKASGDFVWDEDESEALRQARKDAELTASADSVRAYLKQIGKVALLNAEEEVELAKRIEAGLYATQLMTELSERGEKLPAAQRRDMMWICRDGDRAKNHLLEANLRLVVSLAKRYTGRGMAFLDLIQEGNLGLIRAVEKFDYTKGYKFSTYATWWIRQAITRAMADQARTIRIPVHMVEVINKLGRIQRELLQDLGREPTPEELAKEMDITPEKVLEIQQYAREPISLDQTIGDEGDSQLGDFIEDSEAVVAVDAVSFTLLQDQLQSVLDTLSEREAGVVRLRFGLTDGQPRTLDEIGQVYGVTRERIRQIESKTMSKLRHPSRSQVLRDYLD
Chain of Mycobacterium tuberculosis RNA polymerase (P9WGY7 whole entry, the tested form may be a part): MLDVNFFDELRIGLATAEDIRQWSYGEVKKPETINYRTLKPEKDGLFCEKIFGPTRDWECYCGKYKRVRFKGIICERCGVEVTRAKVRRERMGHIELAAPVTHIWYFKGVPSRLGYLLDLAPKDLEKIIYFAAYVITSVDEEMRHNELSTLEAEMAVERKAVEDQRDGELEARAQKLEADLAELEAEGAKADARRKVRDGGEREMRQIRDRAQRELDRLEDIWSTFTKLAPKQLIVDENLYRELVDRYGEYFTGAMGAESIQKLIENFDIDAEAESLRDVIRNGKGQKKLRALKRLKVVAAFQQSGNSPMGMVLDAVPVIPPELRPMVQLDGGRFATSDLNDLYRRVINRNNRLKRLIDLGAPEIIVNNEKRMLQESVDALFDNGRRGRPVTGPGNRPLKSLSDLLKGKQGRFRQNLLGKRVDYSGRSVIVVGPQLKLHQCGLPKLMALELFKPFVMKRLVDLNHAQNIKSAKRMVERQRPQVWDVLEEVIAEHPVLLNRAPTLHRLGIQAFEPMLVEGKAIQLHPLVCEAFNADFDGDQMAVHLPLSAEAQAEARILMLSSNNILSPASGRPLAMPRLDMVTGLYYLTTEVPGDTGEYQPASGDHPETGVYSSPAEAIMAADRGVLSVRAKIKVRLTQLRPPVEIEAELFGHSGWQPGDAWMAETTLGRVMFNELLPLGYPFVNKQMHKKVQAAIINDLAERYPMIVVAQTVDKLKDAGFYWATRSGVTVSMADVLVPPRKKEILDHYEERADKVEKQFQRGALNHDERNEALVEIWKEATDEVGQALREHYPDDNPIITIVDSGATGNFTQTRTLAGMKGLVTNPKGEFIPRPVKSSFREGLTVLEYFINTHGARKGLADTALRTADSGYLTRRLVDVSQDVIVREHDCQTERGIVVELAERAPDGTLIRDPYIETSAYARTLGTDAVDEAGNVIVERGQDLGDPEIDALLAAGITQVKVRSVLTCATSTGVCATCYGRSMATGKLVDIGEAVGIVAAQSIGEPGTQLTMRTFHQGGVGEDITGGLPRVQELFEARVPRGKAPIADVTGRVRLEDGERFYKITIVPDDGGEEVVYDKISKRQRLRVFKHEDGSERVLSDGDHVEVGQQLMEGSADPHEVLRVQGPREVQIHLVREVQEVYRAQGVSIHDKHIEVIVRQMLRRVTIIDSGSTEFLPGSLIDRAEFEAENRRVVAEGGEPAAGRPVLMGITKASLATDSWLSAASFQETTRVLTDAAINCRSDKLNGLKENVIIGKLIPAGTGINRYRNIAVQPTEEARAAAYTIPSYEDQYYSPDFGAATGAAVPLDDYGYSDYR
Procedure: Run-off transcription assays with Mycobacterium tuberculosis RNA polymerase were performed using reaction mixtures containing (10 μl): 0-100 μM test compound, 75 nM Mycobacterium tuberculosis RNA polymerase core enzyme, 300 nM Mycobacterium tuberculosis σ^A, 20 nM 130 bp DNA fragment containing positions −100 to −1 of the bacteriophage […] N25 promoter followed by positions +1 to +30 of the lacUV5-15 promoter of [Mukhopadhyay, J., Kapanidis, A., Mekler, V., Kortkhonjia, E., Ebright, Y., Ebright, R. (2001) Cell 106, 453-463], 25 nM [alpha-^32P]UTP (600 Bq/pmol) for an initial 2 min at 37° C. and 100 μM [alpha-^32P]UTP (6 Bq/pmol) for a subsequent 5 min at 37° C., 100 μM ATP, 100 μM GTP, 100 μM UTP, 100 μM CTP, 40 mM Tris-HCl, pH 8.0, 80 mM NaCl, 5 mM MgCl2, 2.5 mM DTT, and 12.7% glycerol. Reactions were terminated by addition of […] 80% formamide, 10 mM EDTA, 0.04% bromophenol blue, and 0.04% xylene cyanol, followed by heating for 5 min at 90° C. Reaction products were resolved by 15% urea-PAGE, and quantified using a storage-phosphor scanner.

[8] = ATCC19420, M. smegmatis ATCC 19420, read-out: MIC Mycobacterium smegmatis ATCC 19420

Row | SMILES | MIC [1] [mg/L] | MIC [2] [mg/L] | MIC [3, 8] [mg/L] | cross-resistance of AAP1-resistant mutants to the compound [4] | cross-resistance of rifampin-resistant mutants to the compound [5] | MCC mammalian cells Vero E6 ATCC CRL1586 [6] [µg/mL] | IC50 [7] [µM] | MIC ([3]; ATCC19420, read-out: MIC with wild-type rpoB and wild-type rpoC, M. smegmatis ATCC19420 wild type, reference for AAP1-resistant mutants) [mg/L] | hypersensitivity of AAP1-resistant mutants to the compound [4]
1 | Cc1ccccc1NC(=O)C(Cc1ccc(O)cc1)NC(=O)c1ccccc1 (centres unmarked) [I-13, N-(3-(4-hydroxyphenyl)-1-oxo-1-(o-tolylamino)propan-2-yl)benzamide] | 12.5 (≈ 33.4 µM) | 25 (≈ 66.8 µM) | 0.195 (≈ 0.521 µM) | cross-resistance | No rifampin-resistant mutant was found to exhibit cross-resistance | 37 |  |  | 
2 | Cc1ccccc1NC(=O)C(Cc1ccccc1)NC(=O)c1ccccc1F (centres unmarked) [I-80] | 3.12 (≈ 8.29 µM) | 6.25 (≈ 16.6 µM) | 0.39 (≈ 1.04 µM) |  | No rifampin-resistant mutant was found to exhibit cross-resistance | 43 | 2.8 |  | 
3 | Cc1ccc(Cl)cc1NC(=O)C(Cc1ccccc1)NC(=O)c1ccccc1 (centres unmarked) [I-86] | 1.56 (≈ 3.97 µM) | 3.12 (≈ 7.95 µM) | 0.195 (≈ 0.496 µM) |  | No rifampin-resistant mutant was found to exhibit cross-resistance | 13 | 0.92 |  | 
4 | O=C(NC(Cc1ccccc1)C(=O)Nc1ccccc1OCF)c1ccccc1 (centres unmarked) [IX-27, N-(1-((2-(fluoromethoxy)phenyl)amino)-1-oxo-3-phenylpropan-2-yl)benzamide] | 1.56 (≈ 3.98 µM) | 3.12 (≈ 7.96 µM) | 0.195 (≈ 0.497 µM) |  |  | >100 | 0.99 |  | 
5 | Cc1ccc(Cl)cc1NC(=O)C(Cc1ccccc1)NC(=O)c1ccccc1F (centres unmarked) [IX-55, N-(1-((5-chloro-2-methylphenyl)amino)-1-oxo-3-phenylpropan-2-yl)-2-fluorobenzamide] | 1.56 (≈ 3.8 µM) | 3.12 (≈ 7.61 µM) | 0.39 (≈ 0.949 µM) | cross-resistance |  | 10 | 0.47 |  | 
6 | COc1ccc(F)cc1NC(=O)C(Cc1ccccc1)NC(=O)c1ccccc1 (centres unmarked) [IX-73, N-(1-((5-fluoro-2-methoxyphenyl)amino)-1-oxo-3-phenylpropan-2-yl)benzamide] | 1.56 (≈ 3.98 µM) | 0.78 (≈ 1.99 µM) | 0.19 (≈ 0.484 µM) | cross-resistance |  | >100 |  |  | 
7 | COc1ccc(F)cc1NC(=O)C(Cc1ccc(O)cc1)NC(=O)c1ccccc1F (centres unmarked) [IX-204, 2-fluoro-N-(1-((5-fluoro-2-methoxyphenyl)amino)-3-(4-hydroxy-phenyl)-1-oxopropan-2-yl)benzamide] | 0.78 (≈ 1.83 µM) | 1.56 (≈ 3.66 µM) | 0.39 (≈ 0.915 µM) |  |  | 50 | 0.39 |  | 
8 | O=C(NC(Cc1ccccc1)C(=O)Nc1ccccc1N1CCNCC1)c1ccccc1F (centres unmarked) [IX-211, 2-fluoro-N-(1-oxo-3-phenyl-1-((2-(piperazin-1-yl)phenyl)amino)-propan-2-yl)benzamide] | 1.56 (≈ 3.49 µM) | 1.56 (≈ 3.49 µM) | 0.09 (≈ 0.202 µM) | cross-resistance |  | 18 |  |  | 
9 | Cc1ccccc1C(=O)NC(Cc1ccccc1)C(=O)Nc1ccccc1N1CCNCC1 (centres unmarked) [IX-212, 2-methyl-N-(1-oxo-3-phenyl-1-((2-(piperazin-1-yl)phenyl)amino)-propan-2-yl)benzamide] | 1.56 (≈ 3.52 µM) | 1.56 (≈ 3.52 µM) | 0.097 (≈ 0.219 µM) | cross-resistance |  | 15 |  |  | 
10 | O=C(NC(Cc1ccccc1)C(=O)Nc1ccccc1N1CCNCC1)c1cccs1 (centres unmarked) [IX-213, N-(1-oxo-3-phenyl-1-((2-(piperazin-1-yl)phenyl)amino)propan-2-yl)thiophene-2-carboxamide] | 1.56 (≈ 3.59 µM) | 0.78 (≈ 1.79 µM) | 0.097 (≈ 0.223 µM) | cross-resistance |  | 33 |  |  | 
11 | O=C(NC(Cc1ccccc1)C(=O)Nc1cccc2scnc12)c1ccccc1 (centres unmarked) [IX-235, N-(1-(benzo[d]thiazol-4-ylamino)-1-oxo-3-phenylpropan-2-yl)benz-amide] | 3.12 (≈ 7.78 µM) | 6.25 (≈ 15.6 µM) | 0.78 (≈ 1.94 µM) | cross-resistance |  |  |  |  | 
12 | O=C(NC(Cc1ccccc1)C(=O)Nc1cc(F)ccc1N1CCNCC1)c1ccccc1 (centres unmarked) [IX-245, N-(1-((5-fluoro-2-(piperazin-1-yl)phenyl)amino)-1-oxo-3-phenyl-propan-2-yl)benzamide] | 1.56 (≈ 3.49 µM) | 0.78 (≈ 1.75 µM) | 0.39 (≈ 0.873 µM) |  |  | 17 | 0.22 |  | 
13 | COc1ccc(F)cc1NC(=O)C(Cc1ccccc1)NC(=O)c1ccccc1F (centres unmarked) [IX-276, 2-fluoro-N-(1-((5-fluoro-2-methoxyphenyl)amino)-1-oxo-3-phenyl-propan-2-yl)benzamide] | 0.16 (≈ 0.39 µM) | 0.78 (≈ 1.9 µM) | 0.39 (≈ 0.95 µM) | cross-resistance |  |  |  |  | 
14 | NC1CCN(c2ccc(F)cc2NC(=O)C(Cc2ccccc2)NC(=O)c2ccccc2F)CC1 (centres unmarked) [IX-312, N-(1-((2-(4-aminopiperidin-1-yl)-5-fluorophenyl)amino)-1-oxo-3-phenylpropan-2-yl)-2-fluorobenzamide] | 3.13 (≈ 6.54 µM) | 3.13 (≈ 6.54 µM) | 0.195 (≈ 0.407 µM) | cross-resistance |  |  |  |  | 
15 | O=C(NC(Cc1ccccc1)C(=O)Nc1cc(F)ccc1N1CC2CNCC2C1)c1ccccc1F (centres unmarked) [IX-313, 2-fluoro-N-(1-((5-fluoro-2-(hexahydropyrrolo[3,4-c]pyrrol-2(1H)-yl)phenyl)amino)-1-oxo-3-phenylpropan-2-yl)benzamide] | 1.56 (≈ 3.18 µM) | 1.56 (≈ 3.18 µM) | 0.39 (≈ 0.795 µM) | cross-resistance |  |  |  |  | 
16 | O=C(NC(Cc1ccccc1)C(=O)Nc1cc(F)ccc1N1CCNCC1)c1ccccc1Br (centres unmarked) [IX-315, 2-bromo-N-(1-((5-fluoro-2-(piperazin-1-yl)phenyl)amino)-1-oxo-3-phenylpropan-2-yl)benzamide] | 3.12 (≈ 5.95 µM) | 1.56 (≈ 2.97 µM) | 0.39 (≈ 0.742 µM) |  |  | 12.5 | 0.21 |  | 
17 | CO[C@H]1/C=C/O[C@@]2(C)Oc3c(C)c(O)c4c(O)c(c(/C=N/N5CCN(C)CC5)c(O)c4c3C2=O)NC(=O)/C(C)=C\C=C\[C@H](C)[C@H](O)[C@@H](C)[C@@H](O)[C@@H](C)[C@H](OC(C)=O)[C@@H]1C [rifampin, reference compound] |  |  |  | No AAP1-resistant mutant was found to exhibit cross-resistance |  |  |  | 3.13 (≈ 3.8 µM) | Some AAP1 resistant mutants were found to be hypersensitive

— patent US9919998B2, “Antibacterial agents: Nα-aroyl-N-aryl-phenylalaninamides” (priority 2014, dated 2018)
